Laboratory results as given in the supplement of paper PMC10307832.

How the values were obtained:
Assay in all cases: relative viability (nuclei count vs DMSO), 5 days (fraction); higher = more cells survive
H3255 = system: H3255
How it was run: (§1)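 Five library-drug doses in √10 steps were combined with a fixed anchor-drug dose, or a single drug was given alone, by pin tool to lung cancer cell lines in 1536-well plates the day after seeding. Nuclei were stained and counted after 5 days. Relative viability is the nuclei count in treated wells over that in vehicle wells, taken as the median of duplicate plates.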

NCI-H2009 = system: NCI-H2009
How it was run: as §1

NCI-H727 = system: NCI-H727
How it was run: as §1

NCI-H1993 = system: NCI-H1993
How it was run: as §1

EPLC-272H = system: EPLC-272H
How it was run: as §1

NCI-H322M = system: NCI-H322M
How it was run: as §1

NCI-H1915 = system: NCI-H1915
How it was run: as §1

LXF-289 = system: LXF-289
How it was run: as §1

NCI-H2023 = system: NCI-H2023
How it was run: as §1

SK-LU-1 = system: SK-LU-1
How it was run: as §1

NCI-H647 = system: NCI-H647
How it was run: as §1

SW 1573 = system: SW 1573
How it was run: as §1

NCI-H2126 = system: NCI-H2126
How it was run: as §1

NCI-H1734 = system: NCI-H1734
How it was run: as §1

NCI-H2085 = system: NCI-H2085
How it was run: as §1

PC-14 = system: PC-14
How it was run: as §1

EMC-BAC-2 = system: EMC-BAC-2
How it was run: as §1

NCI-H2347 = system: NCI-H2347
How it was run: as §1

HOP-62 = system: HOP-62
How it was run: as §1

NCI-H661 = system: NCI-H661
How it was run: as §1

LCLC-97TM1 = system: LCLC-97TM1
How it was run: as §1

NCI-H1563 = system: NCI-H1563
How it was run: as §1

SMILES: COc1cc2nccc(Oc3ccc(NC(=O)Nc4cc(C)on4)c(Cl)c3)c2cc1OC [Tivozanib] + Cc1nc(Nc2ncc(C(=O)Nc3c(C)cccc3Cl)s2)cc(N2CCN(CCO)CC2)n1 [Dasatinib] (partner 0.075 µM)
- relative viability (H3255; first compound 0.005 µM): 0.316
- relative viability (H3255; first compound 0.01581 µM): 0.432
- relative viability (H3255; first compound 0.05 µM): 0.347
- relative viability (H3255; first compound 0.1581 µM): 0.345
- relative viability (H3255; first compound 0.5 µM): 0.326
- relative viability (NCI-H2009; first compound 0.005 µM): 0.31
- relative viability (NCI-H2009; first compound 0.01581 µM): 0.299
- relative viability (NCI-H2009; first compound 0.05 µM): 0.333
- relative viability (NCI-H2009; first compound 0.1581 µM): 0.262
- relative viability (NCI-H2009; first compound 0.5 µM): 0.22
- relative viability (NCI-H727; first compound 0.005 µM): 0.339
- relative viability (NCI-H727; first compound 0.01581 µM): 0.33
- relative viability (NCI-H727; first compound 0.05 µM): 0.44
- relative viability (NCI-H727; first compound 0.1581 µM): 0.328
- relative viability (NCI-H727; first compound 0.5 µM): 0.451
- relative viability (NCI-H1993; first compound 0.005 µM): 0.609
- relative viability (NCI-H1993; first compound 0.01581 µM): 0.605
- relative viability (NCI-H1993; first compound 0.05 µM): 0.692
- relative viability (NCI-H1993; first compound 0.1581 µM): 0.496
- relative viability (NCI-H1993; first compound 0.5 µM): 0.504
- relative viability (EPLC-272H; first compound 0.005 µM): 0.378
- relative viability (EPLC-272H; first compound 0.01581 µM): 0.375
- relative viability (EPLC-272H; first compound 0.05 µM): 0.447
- relative viability (EPLC-272H; first compound 0.1581 µM): 0.263
- relative viability (EPLC-272H; first compound 0.5 µM): 0.413
- relative viability (NCI-H322M; first compound 0.005 µM): 0.26
- relative viability (NCI-H322M; first compound 0.01581 µM): 0.241
- relative viability (NCI-H322M; first compound 0.05 µM): 0.272
- relative viability (NCI-H322M; first compound 0.1581 µM): 0.249
- relative viability (NCI-H322M; first compound 0.5 µM): 0.254
- relative viability (NCI-H1915; first compound 0.005 µM): 0.279
- relative viability (NCI-H1915; first compound 0.01581 µM): 0.3
- relative viability (NCI-H1915; first compound 0.05 µM): 0.3
- relative viability (NCI-H1915; first compound 0.1581 µM): 0.289
- relative viability (NCI-H1915; first compound 0.5 µM): 0.272
- relative viability (LXF-289; first compound 0.005 µM): 0.214
- relative viability (LXF-289; first compound 0.01581 µM): 0.203
- relative viability (LXF-289; first compound 0.05 µM): 0.279
- relative viability (LXF-289; first compound 0.1581 µM): 0.264
- relative viability (LXF-289; first compound 0.5 µM): 0.216
- relative viability (NCI-H2023; first compound 0.005 µM): 0.515
- relative viability (NCI-H2023; first compound 0.01581 µM): 0.577
- relative viability (NCI-H2023; first compound 0.05 µM): 0.55
- relative viability (NCI-H2023; first compound 0.1581 µM): 0.561
- relative viability (NCI-H2023; first compound 0.5 µM): 0.523
- relative viability (SK-LU-1; first compound 0.005 µM): 0.165
- relative viability (SK-LU-1; first compound 0.01581 µM): 0.173
- relative viability (SK-LU-1; first compound 0.05 µM): 0.162
- relative viability (SK-LU-1; first compound 0.1581 µM): 0.19
- relative viability (SK-LU-1; first compound 0.5 µM): 0.208
- relative viability (NCI-H647; first compound 0.005 µM): 0.152
- relative viability (NCI-H647; first compound 0.01581 µM): 0.227
- relative viability (NCI-H647; first compound 0.05 µM): 0.189
- relative viability (NCI-H647; first compound 0.1581 µM): 0.193
- relative viability (NCI-H647; first compound 0.5 µM): 0.15
- relative viability (SW 1573; first compound 0.005 µM): 0.534
- relative viability (SW 1573; first compound 0.01581 µM): 0.566
- relative viability (SW 1573; first compound 0.05 µM): 0.46
- relative viability (SW 1573; first compound 0.1581 µM): 0.513
- relative viability (SW 1573; first compound 0.5 µM): 0.381
- relative viability (NCI-H2126; first compound 0.005 µM): 0.499
- relative viability (NCI-H2126; first compound 0.01581 µM): 0.567
- relative viability (NCI-H2126; first compound 0.05 µM): 0.636
- relative viability (NCI-H2126; first compound 0.1581 µM): 0.412
- relative viability (NCI-H2126; first compound 0.5 µM): 0.494
- relative viability (NCI-H1734; first compound 0.005 µM): 0.424
- relative viability (NCI-H1734; first compound 0.01581 µM): 0.536
- relative viability (NCI-H1734; first compound 0.05 µM): 0.51
- relative viability (NCI-H1734; first compound 0.1581 µM): 0.366
- relative viability (NCI-H1734; first compound 0.5 µM): 0.425
- relative viability (NCI-H2085; first compound 0.005 µM): 0.226
- relative viability (NCI-H2085; first compound 0.01581 µM): 0.207
- relative viability (NCI-H2085; first compound 0.05 µM): 0.233
- relative viability (NCI-H2085; first compound 0.1581 µM): 0.315
- relative viability (NCI-H2085; first compound 0.5 µM): 0.224
- relative viability (PC-14; first compound 0.005 µM): 0.224
- relative viability (PC-14; first compound 0.01581 µM): 0.25
- relative viability (PC-14; first compound 0.05 µM): 0.255
- relative viability (PC-14; first compound 0.1581 µM): 0.316
- relative viability (PC-14; first compound 0.5 µM): 0.239
- relative viability (EMC-BAC-2; first compound 0.005 µM): 0.313
- relative viability (EMC-BAC-2; first compound 0.01581 µM): 0.314
- relative viability (EMC-BAC-2; first compound 0.05 µM): 0.313
- relative viability (EMC-BAC-2; first compound 0.1581 µM): 0.273
- relative viability (EMC-BAC-2; first compound 0.5 µM): 0.237
- relative viability (NCI-H2347; first compound 0.01581 µM): 0.308
- relative viability (NCI-H2347; first compound 0.05 µM): 0.294
- relative viability (NCI-H2347; first compound 0.5 µM): 0.281
- relative viability (HOP-62; first compound 0.005 µM): 0.638
- relative viability (HOP-62; first compound 0.01581 µM): 0.668
- relative viability (HOP-62; first compound 0.05 µM): 0.633
- relative viability (HOP-62; first compound 0.1581 µM): 0.583
- relative viability (HOP-62; first compound 0.5 µM): 0.698
- relative viability (NCI-H661; first compound 0.005 µM): 0.851
- relative viability (NCI-H661; first compound 0.01581 µM): 0.909
- relative viability (NCI-H661; first compound 0.05 µM): 0.95
- relative viability (NCI-H661; first compound 0.1581 µM): 0.834
- relative viability (NCI-H661; first compound 0.5 µM): 0.796
- relative viability (LCLC-97TM1; first compound 0.005 µM): 0.941
- relative viability (LCLC-97TM1; first compound 0.01581 µM): 0.855
- relative viability (LCLC-97TM1; first compound 0.05 µM): 0.923
- relative viability (LCLC-97TM1; first compound 0.1581 µM): 0.921
- relative viability (LCLC-97TM1; first compound 0.5 µM): 0.836
- relative viability (NCI-H1563; first compound 0.005 µM): 0.455
- relative viability (NCI-H1563; first compound 0.01581 µM): 0.463
- relative viability (NCI-H1563; first compound 0.05 µM): 0.466
- relative viability (NCI-H1563; first compound 0.1581 µM): 0.441
- relative viability (NCI-H1563; first compound 0.5 µM): 0.488
